35 compounds from US9290485B2, “N-((6-amino-pyridin-3-yl)methyl)-heteroaryl-carboxamides” (NOVARTIS AG, priority 2010, dated 2016) can be followed below.

In this assay the target is human plasma kallikrein (Homo sapiens (Human), UniProt P03952). As to conditions: human plasma kallikrein 25 pM, substrate 0.5 uM, 1 hour pre-incubation at room temperature, read at t=60 min.
Sequence of human plasma kallikrein (P03952 whole entry, looked up): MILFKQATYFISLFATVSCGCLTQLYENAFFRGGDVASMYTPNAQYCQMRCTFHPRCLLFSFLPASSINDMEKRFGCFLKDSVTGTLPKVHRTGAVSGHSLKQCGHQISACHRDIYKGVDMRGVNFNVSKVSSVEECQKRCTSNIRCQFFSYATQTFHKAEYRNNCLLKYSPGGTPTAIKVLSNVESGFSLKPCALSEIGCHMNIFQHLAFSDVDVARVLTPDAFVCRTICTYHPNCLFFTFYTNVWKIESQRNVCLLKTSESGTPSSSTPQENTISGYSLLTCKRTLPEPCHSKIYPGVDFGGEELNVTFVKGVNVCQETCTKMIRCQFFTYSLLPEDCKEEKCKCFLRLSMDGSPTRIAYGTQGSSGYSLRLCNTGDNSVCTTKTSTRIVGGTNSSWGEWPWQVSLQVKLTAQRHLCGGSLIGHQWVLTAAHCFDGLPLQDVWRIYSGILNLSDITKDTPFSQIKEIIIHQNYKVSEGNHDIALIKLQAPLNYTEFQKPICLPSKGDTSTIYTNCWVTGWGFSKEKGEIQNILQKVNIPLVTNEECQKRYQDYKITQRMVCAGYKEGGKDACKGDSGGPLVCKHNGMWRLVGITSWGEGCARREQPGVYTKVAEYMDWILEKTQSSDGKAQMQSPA
Sequence of human plasma kallikrein (P03952 whole entry partner, looked up): as the sequence (P03952 whole entry, looked up) above
Method: All other chemicals were of analytical grade.
A stock solution of 0.17 mg/ml deinonized water was stored at −80° C. Enzymatic reactions were conducted in ‘assay buffer’, comprising 50 mM Hepes/NaOH at pH 7.8, 150 mM NaCl, 1 mM EDTA and 0.05% (w/v) CHAPS.
Both, enzyme and substrate were diluted in assay buffer.
All protein and peptide containing solutions were handled in siliconized tubes (Life Systems Design, Merenschwand, Switzerland). […] Plate measurements were conducted by the means of a Safire2 reader (TECAN, Maennedorf, Switzerland). The Safire2 is a monochomator-based instrument and wavelengths of 485 nm and 535 nm were taken for fluorescence excitation and emission acquisition, respectively. The bandwidths were set to 10 nm in both the excitation and the emission path. The fluorescence in each well was excited by three flashes per measurement.
The test compound was dissolved in 90% (v/v) DMSO/water. For the assays, 250 nL of the 90% (v/v) DMSO/water solution or compound solution were added per well, followed by the addition of 12.5 μl protease solution (protease in assay buffer). […] After 1 hour of pre-incubation at room temperature, the reactions were started by the addition of 12.5 μl substrate solution (in assay buffer, final assay concentration was 0.5 uM). After the addition of the substrate solution, the final DMSO concentration in the assay was 0.9% (v/v). […] The IC50 value was calculated from the plot of percentage of inhibition vs. inhibitor concentration by a logistics fit according to the following equation: y=A2+(A1−A2)/(1+(x/IC50)^p) where y is the %-inhibition at the inhibitor concentration, x. A1 is the lowest inhibition value, i.e. 0%, and A2 the maximum inhibition value, i.e. 100%. The exponent, p, is the Hill coefficient. The curve fitting was conducted with the non-linear regression routine of the analysis software Origin 7.55R6 (OriginLab Corporation).
As to `Cc1cc(N)nc(C)c1CNC(=O)c1cnn(Cc2ccccc2Cl)c1` [Example 87, N-((6-amino-2,4-dimethylpyridin-3-yl)methyl)-1-(2-chlorobenzyl)-1H-pyrazole-4-carboxamide], it took 1300 nM to reach half-maximal inhibition (IC50).

`Cc1cc(N)nc(C)c1CNC(=O)c1cnn(CC2CCCCC2)c1` [Example 88, N-((6-amino-2,4-dimethylpyridin-3-yl)methyl)-1-(cyclohexylmethyl)-1H-pyrazole-4-carboxamide] returned an IC50 of 1800 nM. This IC50 and that of the compound before are within 1.5-fold of each other.

Compound `Cc1cc(N)nc(C)c1CNC(=O)c1cnn(Cc2ccc(COc3ccccc3)cc2)c1` [Example 89, N-((6-amino-2,4-dimethylpyridin-3-yl)methyl)-1-(4-(Phenoxymethyl)benzyl)-1H-pyrazole-4-carboxamide] gave an IC50 of 6 nM.

In the case of `Cc1cc(N)nc(C)c1CNC(=O)c1cnn(Cc2ccc(F)c(F)c2)c1` [Example 90, N-((6-amino-2,4-dimethylpyridin-3-yl)methyl)-1-(3,4-difluorobenzyl)-1H-pyrazole-4-carboxamide], half-maximal inhibition (IC50) was put at 2000 nM. Consider `Cc1noc(-c2ccc(Cn3cc(C(=O)NCc4c(C)cc(N)nc4C)cn3)cc2)n1` [Example 91, N-((6-amino-2,4-dimethylpyridin-3-yl)methyl)-1-(4-(3-methyl-1,2,4-oxadiazol-5-yl)benzyl)-1H-pyrazole-4-carboxamide], for which the IC50 amounted to 133 nM. Turning to `Cc1cc(N)nc(C)c1CNC(=O)c1cnn(Cc2cccc(Cl)c2)c1` [Example 92, N-((6-amino-2,4-dimethylpyridin-3-yl)methyl)-1-(3-chlorobenzyl)-1H-pyrazole-4-carboxamide], 867 nM corresponded to half-maximal inhibition (IC50). `Cc1cc(N)nc(C)c1CNC(=O)c1cnn(Cc2ccc(F)cc2F)c1` [Example 93, N-((6-amino-2,4-dimethylpyridin-3-yl)methyl)-1-(2,4-difluorobenzyl)-1H-pyrazole-4-carboxamide] came in with an IC50 of 674 nM. As for `Cc1cc(N)nc(C)c1CNC(=O)c1cnn(Cc2ccc(OCc3ccccc3)cc2)c1` [Example 94, N-((6-amino-2,4-dimethylpyridin-3-yl)methyl)-1-(4-(benzyloxy)benzyl)-1H-pyrazole-4-carboxamide], the figure is 2.1 nM. As for `Cc1cc(N)nc(C)c1CNC(=O)c1cnn(Cc2cccc3c2OCCCO3)c1` [Example 95, N-((6-amino-2,4-dimethylpyridin-3-yl)methyl)-1-((3,4-dihydro-2H-benzo[b][1,4]dioxepin-6-yl)methyl)-1H-pyrazole-4-carboxamide], the figure is 485 nM; as for `Cc1cc(N)nc(C)c1CNC(=O)c1cnn(Cc2ccc(Cl)cc2)c1` [Example 96, N-((6-amino-2,4-dimethylpyridin-3-yl)methyl)-1-(4-chlorobenzyl)-1H-pyrazole-4-carboxamide], 291 nM; as for `Cc1nc(Cn2cc(C(=O)NCc3c(C)cc(N)nc3C)cn2)cs1` [Example 97, N-((6-amino-2,4-dimethylpyridin-3-yl)methyl)-1-((2-methylthiazol-4-yl)methyl)-1H-pyrazole-4-carboxamide], 1900 nM. On to `Cc1cc(N)nc(C)c1CNC(=O)c1cnn(Cc2cccnc2)c1` [Example 98, N-((6-amino-2,4-dimethylpyridin-3-yl)methyl)-1-(pyridin-3-ylmethyl)-1H-pyrazole-4-carboxamide], for which the IC50 turned out to be 3800 nM. Take `Cc1cc(N)nc(C)c1CNC(=O)c1cnn(C(C)c2ccccc2)c1` (centres unmarked) [Example 100, N-((6-amino-2,4-dimethylpyridin-3-yl)methyl)-1-(1-phenylethyl)-1H-pyrazole-4-carboxamide]: the IC50 was found to be 642 nM. In the case of `Cc1cc(N)nc(C)c1CNC(=O)c1cnn(Cc2ccc3c(c2)nnn3C)c1` [Example 101, N-((6-amino-2,4-dimethylpyridin-3-yl)methyl)-1-((1-methyl-1H-benzo[d][1,2,3]triazol-5-yl)methyl)-1H-pyrazole-4-carboxamide], the IC50 amounted to 70 nM.

Consider `Cc1cc(N)nc(C)c1CNC(=O)c1cnn(Cc2cccc(C(N)=O)c2)c1` [Example 102, N-((6-amino-2,4-dimethylpyridin-3-yl)methyl)-1-(3-carbamoylbenzyl)-1H-pyrazole-4-carboxamide], for which the midpoint of inhibition, the IC50, lay at 4000 nM. As for `Cc1cc(N)nc(C)c1CNC(=O)c1cnn(Cc2ccc3c(c2)OCO3)c1` [Example 103, N-((6-amino-2,4-dimethylpyridin-3-yl)methyl)-1-(benzo[d][1,3]dioxol-5-ylmethyl)-1H-pyrazole-4-carboxamide], the midpoint of inhibition, the IC50, lay at 299 nM. Take `Cc1cc(N)nc(C)c1CNC(=O)c1cnn(Cc2nc3ccccc3s2)c1` [Example 105, N-((6-amino-2,4-dimethylpyridin-3-yl)methyl)-1-(benzo[d]thiazol-2-ylmethyl)-1H-pyrazole-4-carboxamide]: half-maximal inhibition (IC50) was put at 168 nM. Against the preceding compound, the IC50 is about 1.8-fold lower. As for `Cc1cc(N)nc(C)c1CNC(=O)c1cnn(Cc2noc3ccccc23)c1` [Example 106, N-((6-amino-2,4-dimethylpyridin-3-yl)methyl)-1-(benzo[d]isoxazol-3-ylmethyl)-1H-pyrazole-4-carboxamide], the figure is 415 nM.

As to `Cc1cc(N)nc(C)c1CNC(=O)c1cn(Cc2ccccc2C#N)c2ccccc12` [Example 107, N-((6-amino-2,4-dimethylpyridin-3-yl)methyl)-1-(2-cyanobenzyl)-1H-indole-3-carboxamide], inhibition was half-maximal at 1800 nM (IC50). Compared with the last compound, the IC50 is about 4.3-fold higher. In turn, `Cc1cc(N)nc(C)c1CNC(=O)c1cn(Cc2ccccc2)c2ccccc12` [Example 108, N-((6-amino-2,4-dimethylpyridin-3-yl)methyl)-1-benzyl-1H-indole-3-carboxamide] came in with an IC50 of 798 nM.

Consider `Cc1cc(N)nc(C)c1CNC(=O)c1cc(C)n(Cc2ccccc2)c1C` [Example 109, N-((6-amino-2,4-dimethylpyridin-3-yl)methyl)-1-benzyl-2,5-dimethyl-1H-pyrrole-3-carboxamide], for which the IC50 amounted to 1300 nM.

Take `Cc1cc(N)nc(C)c1CNC(=O)c1cnn(Cc2ccc(CN3CCOCC3)cc2)c1` [Example 110, N-((6-amino-2,4-dimethylpyridin-3-yl)methyl)-1-(4-(morpholinomethyl)benzyl)-1H-pyrazole-4-carboxamide]: the IC50 turned out to be 249 nM. Against the preceding compound, the IC50 is about 5.2-fold lower. As for `Cc1cc(N)nc(C)c1CNC(=O)c1cnn(Cc2ccc(C(=O)NC3CCS(=O)(=O)C3)cc2)c1` (centres unmarked) [Example 111, 1-[4-(1,1-Dioxo-tetrahydro-1lambda*6*-thiophen-3-ylcarbamoyl)-benzyl]-1H-pyrazole-4-carboxylic acid (6-amino-2,4-dimethyl-pyridin-3-ylmethyl)-amide], the figure is 2100 nM; as for `Cc1cc(N)nc(C)c1CNC(=O)c1cnn(Cc2ccc(NC(=O)NC3CC3)cc2)c1` [Example 112, N-((6-amino-2,4-dimethylpyridin-3-yl)methyl)-1-(4-(3-cyclopropylureido)benzyl)-1H-pyrazole-4-carboxamide], 229 nM; as for `Cc1cc(N)nc(C)c1CNC(=O)c1n[nH]c(Cc2ccccc2)n1` [Example 113, N-((6-amino-2,4-dimethylpyridin-3-yl)methyl)-5-benzyl-1H-1,2,4-triazole-3-carboxamide], 5800 nM. As for `Cc1cc(N)nc(C)c1CNC(=O)c1cnn(Cc2ccc(-c3ccncc3)cc2)c1` [Example 114, N-((6-amino-2,4-dimethylpyridin-3-yl)methyl)-1-(4-(pyridin-4-yl)benzyl)-1H-pyrazole-4-carboxamide], the figure is 30 nM.

In the case of `Cc1cc(N)nc(C)c1CNC(=O)c1cnn(Cc2cccc(-c3ccccc3)c2)c1` [Example 115, N-((6-amino-2,4-dimethylpyridin-3-yl)methyl)-1-(biphenyl-3-ylmethyl)-1H-pyrazole-4-carboxamide], the midpoint of inhibition, the IC50, lay at 3.3 nM. `Cc1cc(N)nc(C)c1CNC(=O)c1cnn(Cc2cccc(S(=O)(=O)N3CCOCC3)c2)c1` [Example 116, N-((6-amino-2,4-dimethylpyridin-3-yl)methyl)-1-(3-(morpholinosulfonyl)benzyl)-1H-pyrazole-4-carboxamide]: the IC50 is 197 nM. As for `Cc1cc(N)nc(C)c1CNC(=O)c1cnn(Cc2cccc(C(=O)Nc3ccccc3)c2)c1` [Example 117, N-((6-amino-2,4-dimethylpyridin-3-yl)methyl)-1-(3-(phenylcarbamoyl)benzyl)-1H-pyrazole-4-carboxamide], the figure is 152 nM.

`Cc1cc(N)nc(C)c1CNC(=O)c1cnn(Cc2ccc(CN3CCCC3)cc2)c1` [Example 118, N-((6-amino-2,4-dimethylpyridin-3-yl)methyl)-1-(4-(pyrrolidin-1-ylmethyl)benzyl)-1H-pyrazole-4-carboxamide] displayed a half-inhibitory concentration (IC50) of 183 nM.

As for `Cc1cc(N)nc(C)c1CNC(=O)c1cnn(Cc2cccc(C(=O)N3CCCCC3)c2)c1` [Example 119, N-((6-amino-2,4-dimethylpyridin-3-yl)methyl)-1-(3-(piperidine-1-carbonyl)benzyl)-1H-pyrazole-4-carboxamide], the IC50 was 289 nM. `Cc1cc(N)nc(C)c1CNC(=O)c1cnn(Cc2ccc(C(=O)N3CCOCC3)cc2)c1` [Example 121, N-((6-amino-2,4-dimethylpyridin-3-yl)methyl)-1-(4-(morpholine-4-carbonyl)benzyl)-1H-pyrazole-4-carboxamide] yielded an IC50 of 369 nM.

For the compound `Cc1cc(N)nc(C)c1CNC(=O)c1cnn(Cc2ccc(C(=O)Nc3ccn(C)n3)cc2)c1` [Example 122, N-((6-amino-2,4-dimethylpyridin-3-yl)methyl)-1-(4-(1-methyl-1H-pyrazol-3-ylcarbamoyl)benzyl)-1H-pyrazole-4-carboxamide], it took 752 nM to reach half-maximal inhibition (IC50). `Cc1cc(N)nc(C)c1CNC(=O)c1n[nH]c([C@@H](N)c2ccccc2)n1` [Example 123, (S)-5-(amino(phenyl)methyl)-N-((6-amino-2,4-dimethylpyridin-3-yl)methyl)-1H-1,2,4-triazole-3-carboxamide] came in with an IC50 of 15800 nM. Take `Cc1cc(N)nc(C)c1CNC(=O)c1nc(Cc2ccc(-c3ccccc3)cc2)n[nH]1` [Example 124, N-((6-amino-2,4-dimethylpyridin-3-yl)methyl)-3-(biphenyl-4-ylmethyl)-1H-1,2,4-triazole-5-carboxamide]: inhibition was half-maximal at 71 nM (IC50).
